Reference: patent US20060110456A1, “Method for biocidal and/or biostatic treatment and compositions therefor” (NATIONAL UNIVERSITY OF SINGAPORE, priority 2004, published 2006)
Entries after “also recorded” stand apart in the source; their conditions may differ. Structures can show the parent of a compound that is named as a salt.

Legend:
[1] = test system: barnacle cyprids; assay: Cyprid settlement on plastic and glass substrata (IMD, ZPX); type: in vivo, Balanus amphitrite
Description: Assays were then carried out on plastic and glass substrata. […] The wells were then rinsed with clean water, and cyprids added in clean seawater.
A follow up experiment was carried out to examine the effect of ZPX on barnacle settlement when the experiment is carried out on different substrata. ZPX test solutions were prepared as described above from the tablet. The following test conditions were applied: • (1) Assay was carried out with ZPX test solutions in the 24 well tissue culture plates (as before); • (2) ZPX test solution at 25 ug ml^−1 were applied to the 24 well tissue culture plates and left in the well for 10 minutes. The solution is then discarded and the well was rinsed three times, each time with 2 ml of seawater. Clean seawater was added into each well. • (3) The assay with ZPX test solutions was carried out in glass scintillation bottles.
Cyprids were obtained and settlement experiments were carried out as described earlier. After 24 hours, the number of cyprids which had settled/attached was counted.

[2] = test system: marine bacteria (ten strains); assay: Bacteriostatic vs bacteriocidal activity from growth assay: absorbance and CFU counts; type: cell-based, marine bacteria isolated from Singapore fouling communities; details: 50 μg ml^−1; for Growth assay: 24-hour change in absorbance for ten strains: strains 1, 4, 9, 14, 18, 20, 27, 28, 29, 30
Description: Bacteria strains (1, 4, 9, 14, 18, 20, 27, 28, 29, 30) representing a variety of morphological types were used.
For each well, […] of a 100 μg ml^−1 drug solution in sterile distilled water, was added to 45 μl of Marine Broth. Controls for growth consisted of 50 μl of sterile deionized water and 45 μl of marine broth. All wells used for growth studies were prepared in triplicate and inoculated with 5 μl of the bacterial suspension. Blanks consisting of the above volumes of pharmaceutical with Marine Broth and distilled water, were prepared in triplicate and inoculated with 5 μl of sterile seawater. Immediately after adding all the components to the wells for the growth studies, 10 μl was removed and used to inoculate plates of Marine Agar to determine colony-forming units (CFU). The absorbance (A600) of each well was read in the plate reader immediately.
The inoculated plates of Marine Agar were incubated overnight on a rotary shaker (150 rpm) at 30° C. inside a moistened airtight container. After incubation, the absorbance was read again and another 10 μl was removed and used to inoculate Marine Agar plates to determine CFU.
The difference in absorbance over 24 hours for each bacterial strain versus controls and treatments were plotted in FIGS. 3 to 6 for each of the four drugs. The data was analyzed using 1-tailed t-test.

[3] = test system: bacterial biofilms (strains 9, 14, 20, 27 and 28); assay: Effect of ZPX and ZFN on adhesion and removal of biofilms; type: cell-based, marine bacteria isolated from Singapore fouling communities; details: NTC; for Effect on established bacterial biofilms: 25 ug ml^−1; for Biofilm present after treatment (added with bacteria or after biofilm established): 50 ug ml^−1
Description: The bacteria were grown, washed and their concentrations were adjusted as described above. The bacterial suspension (75 μl) of strains 9, 14, 20, 27 and 28 in SSW and 50 μl of SDI water were placed into 96 well polystyrene microplates (Falcon 351172). Blank wells were filled with 75 μl of SSW and 50 μl of SDI. Three wells were used for blanks, each control and treatment.
The cells were allowed to attach to the wells for 2 h. Afterwards, unattached bacteria and liquid in the wells were removed by aspiration and wells were washed with 200 μl of SSW twice using a microplate washer as described above. After washing, 75 μl of SSW were added and 50 μl of SDI to the control (bacterial suspension and SDI as above) and blank (75 μl of SSW and 50 μl of SDI) wells.
After 2 h, the wells were washed with SSW, washed twice with SDI and stained with crystal violet as described above. After 10 min, the stain was removed, wells were washed twice with SDI, and crystal violet was released from the attached bacteria by adding 200 μl of sodium desoxycholate. After 10 min, absorbance (A590) of each well was read using a plate reader (Tecan Sunrise, Switzerland). Comparisons were made between wells where attached bacteria were exposed to SDI and wells where they were exposed to the pharmaceuticals.

CN(C)C(=O)C(CCN1CCC(O)(c2ccc(Cl)cc2)CC1)(c1ccccc1)c1ccccc1 [IMD, Loperamide hydrochloride]
Effect of IMD on settlement of cyprids: drug form, solvent, substratum ([1]; tablet vs pure compound, DMSO vs DI stock, glass vs plastic, treated and rinsed wells, hydrochloride): no difference in activity between the solutions prepared from tablet and the pure compound; also recorded: no difference between the DMSO and DI prepared stock solutions; also recorded: no difference between glass and plastic; also recorded: no significant IMD residue present on the surfaces

CN1CCN(CCCN2c3ccccc3Sc3ccc(Cl)cc32)CC1 [PCZ, prochlorperazine maleate]
Killing of bacteria (decrease in absorbance and CFU counts) [2]: strain 14 was not killed | Growth assay: 24-hour change in absorbance for ten strains [2]: only strain numbers 1 and 14 grew in the presence of PCZ | Change in CFU count after 24 hours ([2]; strain 1 (Rhodovulum)): 0 | Inhibition of bacterial growth ([2]; strain 1 (Rhodovulum)): 0 | Result (bacteriostatic / bacteriocidal / no effect) ([2]; strain 1 (Rhodovulum)): no effect | Inhibition of bacterial growth ([2]; strain 4 (Bacillus)): +++ (+++ denotes little or no growth, p < 0.001) | Result (bacteriostatic / bacteriocidal / no effect) ([2]; strain 4 (Bacillus)): bacteriocidal | Inhibition of bacterial growth ([2]; strain 9 (Bacillus)): +++ (+++ denotes little or no growth, p < 0.001) | Result (bacteriostatic / bacteriocidal / no effect) ([2]; strain 9 (Bacillus)): bacteriocidal | Change in CFU count after 24 hours ([2]; strain 14 (Vibrio)): 0 | Inhibition of bacterial growth ([2]; strain 14 (Vibrio)): 0 | Result (bacteriostatic / bacteriocidal / no effect) ([2]; strain 14 (Vibrio)): no effect | Inhibition of bacterial growth ([2]; strain 18 (Microbacterium)): +++ (+++ denotes little or no growth, p < 0.001) | Result (bacteriostatic / bacteriocidal / no effect) ([2]; strain 18 (Microbacterium)): bacteriostatic | Inhibition of bacterial growth ([2]; strain 20): +++ (+++ denotes little or no growth, p < 0.001) | Result (bacteriostatic / bacteriocidal / no effect) ([2]; strain 20): bacteriostatic | Inhibition of bacterial growth ([2]; strain 27): +++ (+++ denotes little or no growth, p < 0.001) | Result (bacteriostatic / bacteriocidal / no effect) ([2]; strain 27): bacteriocidal | Inhibition of bacterial growth ([2]; strain 28): +++ (+++ denotes little or no growth, p < 0.001) | Result (bacteriostatic / bacteriocidal / no effect) ([2]; strain 28): bacteriostatic | Inhibition of bacterial growth ([2]; strain 29): +++ (+++ denotes little or no growth, p < 0.001) | Result (bacteriostatic / bacteriocidal / no effect) ([2]; strain 29): bacteriocidal | Inhibition of bacterial growth ([2]; strain 30): +++ (+++ denotes little or no growth, p < 0.001) | Result (bacteriostatic / bacteriocidal / no effect) ([2]; strain 30): bacteriostatic

CNCCC(Oc1ccc(C(F)(F)F)cc1)c1ccccc1 (stereo not shown) [PZC, fluoxetine hydrochloride]
Change in CFU count after 24 hours ([2]; strain 1 (Rhodovulum)): 0 | Inhibition of bacterial growth ([2]; strain 1 (Rhodovulum)): 0 | Result (bacteriostatic / bacteriocidal / no effect) ([2]; strain 1 (Rhodovulum)): no effect | Inhibition of bacterial growth ([2]; strain 4 (Bacillus)): +++ (+++ denotes little or no growth, p < 0.001) | Result (bacteriostatic / bacteriocidal / no effect) ([2]; strain 4 (Bacillus)): bacteriostatic | Inhibition of bacterial growth ([2]; strain 9 (Bacillus)): +++ (+++ denotes little or no growth, p < 0.001) | Result (bacteriostatic / bacteriocidal / no effect) ([2]; strain 9 (Bacillus)): bacteriostatic | Change in CFU count after 24 hours ([2]; strain 14 (Vibrio)): 0 | Inhibition of bacterial growth ([2]; strain 14 (Vibrio)): 0 | Result (bacteriostatic / bacteriocidal / no effect) ([2]; strain 14 (Vibrio)): no effect | Inhibition of bacterial growth ([2]; strain 18 (Microbacterium)): +++ (+++ denotes little or no growth, p < 0.001) | Result (bacteriostatic / bacteriocidal / no effect) ([2]; strain 18 (Microbacterium)): bacteriostatic | Inhibition of bacterial growth ([2]; strain 20): +++ (+++ denotes little or no growth, p < 0.001) | Result (bacteriostatic / bacteriocidal / no effect) ([2]; strain 20): bacteriostatic | Inhibition of bacterial growth ([2]; strain 27): +++ (+++ denotes little or no growth, p < 0.001) | Result (bacteriostatic / bacteriocidal / no effect) ([2]; strain 27): bacteriocidal | Inhibition of bacterial growth ([2]; strain 28): +++ (+++ denotes little or no growth, p < 0.001) | Result (bacteriostatic / bacteriocidal / no effect) ([2]; strain 28): bacteriostatic | Inhibition of bacterial growth ([2]; strain 29): +++ (+++ denotes little or no growth, p < 0.001) | Result (bacteriostatic / bacteriocidal / no effect) ([2]; strain 29): bacteriostatic | Inhibition of bacterial growth ([2]; strain 30): +++ (+++ denotes little or no growth, p < 0.001) | Result (bacteriostatic / bacteriocidal / no effect) ([2]; strain 30): bacteriostatic

CN1CCN(CCCN2c3ccccc3Sc3ccc(C(F)(F)F)cc32)CC1 [TFZ, Trifluoperazine hydrochloride]
Killing of bacteria (decrease in absorbance and CFU counts) [2]: strain 14 was not killed | Growth assay: 24-hour change in absorbance for ten strains [2]: only strain numbers 1 and 14 grew in the presence of TFZ | Change in CFU count after 24 hours ([2]; strain 1 (Rhodovulum)): 0 | Inhibition of bacterial growth ([2]; strain 1 (Rhodovulum)): 0 | Result (bacteriostatic / bacteriocidal / no effect) ([2]; strain 1 (Rhodovulum)): no effect | Inhibition of bacterial growth ([2]; strain 4 (Bacillus)): +++ (+++ denotes little or no growth, p < 0.001) | Result (bacteriostatic / bacteriocidal / no effect) ([2]; strain 4 (Bacillus)): bacteriocidal | Inhibition of bacterial growth ([2]; strain 9 (Bacillus)): +++ (+++ denotes little or no growth, p < 0.001) | Result (bacteriostatic / bacteriocidal / no effect) ([2]; strain 9 (Bacillus)): bacteriocidal | Change in CFU count after 24 hours ([2]; strain 14 (Vibrio)): 0 | Inhibition of bacterial growth ([2]; strain 14 (Vibrio)): 0 | Result (bacteriostatic / bacteriocidal / no effect) ([2]; strain 14 (Vibrio)): no effect | Inhibition of bacterial growth ([2]; strain 18 (Microbacterium)): +++ (+++ denotes little or no growth, p < 0.001) | Result (bacteriostatic / bacteriocidal / no effect) ([2]; strain 18 (Microbacterium)): bacteriostatic | Inhibition of bacterial growth ([2]; strain 20): +++ (+++ denotes little or no growth, p < 0.001) | Result (bacteriostatic / bacteriocidal / no effect) ([2]; strain 20): bacteriostatic | Inhibition of bacterial growth ([2]; strain 27): +++ (+++ denotes little or no growth, p < 0.001) | Result (bacteriostatic / bacteriocidal / no effect) ([2]; strain 27): bacteriocidal | Inhibition of bacterial growth ([2]; strain 28): +++ (+++ denotes little or no growth, p < 0.001) | Result (bacteriostatic / bacteriocidal / no effect) ([2]; strain 28): bacteriostatic | Inhibition of bacterial growth ([2]; strain 29): +++ (+++ denotes little or no growth, p < 0.001) | Result (bacteriostatic / bacteriocidal / no effect) ([2]; strain 29): bacteriocidal | Inhibition of bacterial growth ([2]; strain 30): +++ (+++ denotes little or no growth, p < 0.001) | Result (bacteriostatic / bacteriocidal / no effect) ([2]; strain 30): bacteriostatic

Cc1nccn1CC1CCc2c(c3ccccc3n2C)C1=O (stereo not shown) [ZFN, ondansetron hydrochloride]
Effect on established bacterial biofilms [3]: no significant effect | Biofilm present after treatment (added with bacteria or after biofilm established) [3]: Except for strain 28, little or no biofilm was present after treatment

Cc1cc2c(s1)Nc1ccccc1N=C2N1CCN(C)CC1 [ZPX, olanzapine]
Effect on established bacterial biofilms [3]: no significant effect | Biofilm present after treatment (added with bacteria or after biofilm established) [3]: Except for strain 28, little or no biofilm was present after treatment | Effect of ZPX on cyprid settlement on different substrata ([1]; 24 well tissue culture plates, rinsed ZPX-treated wells (25 ug ml^−1, 10 minutes), glass bottles, 24 hours): no significant difference in settlement between plastic and glass; also recorded: After rinsing, the effect of ZPX in plastic was removed; also recorded: prevents the settlement of barnacle cyprids
